# Laboratory results as given in paper PMC8694192, “Synthesis and biological evaluation of new derivatives of thieno-thiazole and dihydrothiazolo-thiazole scaffolds integrated with a pyrazoline nucleus as anticancer and multi-targeting kinase inhibitors” (RSC Advances, 2021).
# Where two headings read alike, the source gives them in different places.
# Experiments:
# [1] = tested on: C. albicans ATCC 10231; test: MIC, two-fold serial dilution; conditions: for MIC: Candida albicans, ATCC10231, read-out: MIC C. albicans ATCC 10231
# [2] = tested on: C. albicans ATCC 10231; test: Agar well diffusion, inhibition zone; format: cell-based; conditions: Candida albicans
# [3] = tested on: A. fumigatus RCMB 02568; test: Agar well diffusion, inhibition zone; format: cell-based; conditions: Aspergillus fumigatus
# [4] = tested on: A. fumigatus RCMB 02568; test: MIC, two-fold serial dilution; conditions: for MIC: Aspergillus fumigatus, RCMB02568, read-out: MIC A. fumigatus RCMB 02568
# [5] = tested on: S. aureus 25923; test: Agar well diffusion, inhibition zone; format: cell-based
# [6] = tested on: E. faecalis; test: MIC, two-fold serial dilution; conditions: Enterococcus faecalis, read-out: MIC E. faecalis
# [7] = tested on: S. pneumoniae 010010; test: Agar well diffusion, inhibition zone; format: cell-based
# [8] = tested on: S. typhi ATCC 14028; test: MIC, two-fold serial dilution; format: cell-based; conditions: Salmonella enterica, read-out: MIC S. typhi ATCC 14028
# [9] = tested on: P. aeruginosa; test: Agar well diffusion, inhibition zone; format: cell-based; conditions: Pseudomonas aeruginosa, read-out: Mean diameter of inhibition zone (mean ± SEM) P. aeruginosa
# [10] = tested on: MCF-7 cells; test: In vitro cytotoxicity, MTT assay, MCF-7; conditions: Homo sapiens, MCF7, read-out: IC50 MCF-7
# [11] = tested on: S. aureus 25923; test: MIC, two-fold serial dilution; conditions: Staphylococcus aureus, 25923, read-out: MIC S. aureus 25923
# [12] = tested on: S. typhi ATCC 14028; test: Agar well diffusion, inhibition zone; format: cell-based; conditions: Salmonella enterica, read-out: Mean diameter of inhibition zone (mean ± SEM) S. typhi ATCC 14028
# [13] = tested on: P. aeruginosa; test: MIC, two-fold serial dilution; conditions: for MIC: Pseudomonas aeruginosa, read-out: MIC P. aeruginosa
# [14] = tested on: E. faecalis; test: Agar well diffusion, inhibition zone; format: cell-based; conditions: Enterococcus faecalis, read-out: Mean diameter of inhibition zone (mean ± SEM) E. faecalis
# [15] = tested on: E. coli RCMB 010052; test: MIC, two-fold serial dilution; conditions: Escherichia coli, RCMB010052, read-out: MIC E. coli RCMB 010052
# [16] = tested on: HepG-2 cells; test: In vitro cytotoxicity, MTT assay, HepG-2; conditions: Homo sapiens, HepG2, read-out: IC50 HepG-2
# [17] = tested on: S. pneumoniae 010010; test: MIC, two-fold serial dilution; conditions: for MIC: Streptococcus pneumoniae, 010010, read-out: MIC S. pneumoniae 010010
# [18] = tested on: E. coli RCMB 010052; test: Agar well diffusion, inhibition zone; format: cell-based; conditions: Escherichia coli
# [19] = Staphylococcus aureus, 25923, read-out: Mean diameter of inhibition zone (mean ± SEM) S. aureus 25923
# [20] = Streptococcus pneumoniae, 010010, read-out: Mean diameter of inhibition zone (mean ± SEM) S. pneumoniae 010010
# [21] = ATCC10231, read-out: Mean diameter of inhibition zone (mean ± SEM) C. albicans ATCC 10231
# [22] = RCMB02568, read-out: Mean diameter of inhibition zone (mean ± SEM) A. fumigatus RCMB 02568
# [23] = RCMB010052, read-out: Mean diameter of inhibition zone (mean ± SEM) E. coli RCMB 010052
Compound,MIC [1] [µM],MIC [4] [µM],"zone of inhibition at 500 µg/mL [5, 19] [mm]",MIC [6] [µM],"zone of inhibition at 500 µg/mL [7, 20] [mm]",MIC [8] [µM],zone of inhibition at 500 µg/mL [9] [mm],"zone of inhibition at 500 µg/mL [2, 21] [mm]",IC50 [10] [µM],MIC [11] [µM],zone of inhibition at 500 µg/mL [12] [mm],MIC [13] [µM],zone of inhibition at 500 µg/mL [14] [mm],MIC [15] [µM],IC50 [16] [µM],"zone of inhibition at 500 µg/mL [3, 22] [mm]",melting point [°C],MIC [17] [µM],"zone of inhibition at 500 µg/mL [18, 23] [mm]",further results
"C[C@@H]1[C@H](O)[C@@H](C)/C=C/C=C/C=C/C=C/C=C/C=C/C=C/[C@H](O[C@@H]2O[C@H](C)[C@@H](O)[C@H](N)[C@@H]2O)C[C@@H]2O[C@](O)(C[C@@H](O)C[C@@H](O)[C@H](O)CC[C@@H](O)C[C@@H](O)CC(=O)O[C@H]1C)C[C@H](O)[C@H]2C(=O)O [Amphotericin B, reference compound]",67.8,39.1,,,,,,,,,,,,,,,,,,"zone of inhibition at 500 µg/mL ([2]; ATCC10231, well diffusion agar, 0.5 mg/mL, read-out: Mean diameter of inhibition zone (mean ± SEM) C. albicans ATCC 10231): 20 ± 0.78 mm; zone of inhibition at 500 µg/mL ([3]; RCMB02568, well diffusion agar, 0.5 mg/mL, read-out: Mean diameter of inhibition zone (mean ± SEM) A. fumigatus RCMB 02568): 22 ± 0.72 mm"
"Cc1c(Nc2nc3c(C#N)c(N)sc3s2)c(=O)n(-c2ccccc2)n1C [Compound 3a, 5-Amino-2-((1,5-dimethyl-3-oxo-2-phenyl-2,3-dihydro-1H-pyrazol-4-yl)amino)thieno [3,2-d]thiazole-6-carbonitrile]",186,120,28 ± 0.15,185,21 ± 0.69,125,22 ± 0.44,12 ± 0.51,27.58 ± 0.01,16.9,17 ± 0.95,40.5,13 ± 0.76,19.4,25.72 ± 0.03,18 ± 0.25,> 300,58.9,25 ± 0.15,"MIC C. albicans ATCC 10231 ([1]; two-fold serial dilution): completely lost; fold more potency than streptomycin, P. aeruginosa ([13]; from MIC): 1.6 folds; MIC A. fumigatus RCMB 02568 ([4]; two-fold serial dilution): completely lost; fold more potency than streptomycin, S. pneumoniae ([17]; from MIC): 1.1 folds"
"CCOC(=O)c1c(N)sc2sc(Nc3c(C)n(C)n(-c4ccccc4)c3=O)nc12 [Compound 3b, Ethyl 5-amino-2-((1,5-dimethyl-3-oxo-2-phenyl-2,3-dihydro-1H-pyrazol-4-yl)amino) thieno[3,2-d]thiazole-6-carboxylate]",189,62.1,19 ± 0.68,67.4,14 ± 0.84,45.6,17 ± 0.41,11 ± 0.7,36.77 ± 0.02,79,23 ± 0.79,125,20 ± 0.24,119,39.02 ± 0.02,21 ± 0.22,285 to 287,179,15 ± 0.71,
"Cc1c(Nc2nc3c(s2)sc(=S)n3-c2ccccc2)c(=O)n(-c2ccccc2)n1C [Compound 5a, 1,5-Dimethyl-2-phenyl-4-((4-phenyl-5-thioxo-4,5-dihydrothiazolo[4,5-d]thiazol-2-yl)amino)-1H-pyrazol-3(2H)-one]",,197,21.2 ± 0.25,183,,44.7,,,73.8 ± 0.04,63.6,23 ± 0.05,,13 ± 0.43,,65.19 ± 0.02,9 ± 0.53,201 to 203,,,
"CCn1c(=S)sc2sc(Nc3c(C)n(C)n(-c4ccccc4)c3=O)nc21 [Compound 5b, 4-((4-Ethyl-5-thioxo-4,5-dihydrothiazolo[4,5-d]thiazol-2-yl)amino)-1,5-dimethyl-2-phenyl-1H-pyrazol-3(2H)-one]",185,,16 ± 0.88,15.2,28 ± 0.12,,18 ± 0.95,12 ± 0.07,43.94 ± 0.02,135,,122,27 ± 0.41,193,48.04 ± 0.03,,183 to 185,15.9,10 ± 0.42,
"Cc1c(Nc2nc3c(s2)sc(=S)n3-c2ccc(Cl)cc2)c(=O)n(-c2ccccc2)n1C [Compound 5d, 4-((4-(4-Chlorophenyl)-5-thioxo-4,5-dihydrothiazolo[4,5-d]thiazol-2-yl)amino)-1,5-dimethyl-2-phenyl-1H-pyrazol-3(2H)-one]",,,25 ± 0.13,,,,13 ± 0.11,,88.56 ± 0.01,18.9,,180,,118,81.5 ± 0.03,,211 to 213,,15 ± 0.04,
"COc1cccc2c1C(=O)c1c(O)c3c(c(O)c1C2=O)C[C@@](O)(C(=O)CO)C[C@@H]3O[C@H]1C[C@H](N)[C@H](O)[C@H](C)O1 [Doxorubicin, doxorubicin, reference compound]",,,,,,,,,4.62 ± 0.01,,,,,,5.66 ± 0.01,,,,,
"[H]/N=C(/N)N[C@H]1[C@H](O)[C@@H](O)[C@H](O[C@@H]2O[C@@H](C)[C@](O)(C=O)[C@H]2O[C@@H]2O[C@@H](CO)[C@H](O)[C@@H](O)[C@@H]2NC)[C@@H](N/C(N)=N\[H])[C@@H]1O [Streptomycin, reference compound]",,,,19.5,,47.1,,,,16.8,23 ± 0.92,68.2,,9.18,,,,65.3,,"zone of inhibition at 500 µg/mL ([5]; Staphylococcus aureus, 25923, well diffusion agar, 0.5 mg/mL, read-out: Mean diameter of inhibition zone (mean ± SEM) S. aureus 25923): 26 ± 0.45 mm; zone of inhibition at 500 µg/mL ([7]; Streptococcus pneumoniae, 010010, well diffusion agar, 0.5 mg/mL, read-out: Mean diameter of inhibition zone (mean ± SEM) S. pneumoniae 010010): 22 ± 0.81 mm; zone of inhibition at 500 µg/mL ([9]; well diffusion agar, 0.5 mg/mL): 20 ± 0.53 mm; zone of inhibition at 500 µg/mL ([14]; well diffusion agar, 0.5 mg/mL): 25 ± 0.38 mm; zone of inhibition at 500 µg/mL ([18]; RCMB010052, well diffusion agar, 0.5 mg/mL, read-out: Mean diameter of inhibition zone (mean ± SEM) E. coli RCMB 010052): 27 ± 0.56 mm"
